What all share (test): MIC by micro broth dilution
Format in all cases: cell-based
(In broth dilution the organism is exposed to a series of concentrations in liquid medium.)

The subject of test [1] is E. faecium NCIM 5421. The note with it: for MIC: Enterococcus faecium, NCIM5421, read-out: Minimum inhibitory concentration (MIC). The protocol:
(§1) MIC of DART molecules were determined by micro broth dilution as per CLSI guidelines. Bacterial strains were cultured in Brain Heart Infusion Agar (BHIA) at 37° C. for 24 h. For MIC determination, BHI broth (100 μl) was added to each of the wells of a 96 well plate. 100 μl of broth containing drug was added to the first well (1A to 1H) and thereafter serial (double) dilutions were carried out for up to 10 wells (column 1 to column 10 of the 96 well plate). Bacterial inoculum was prepared by adjusting the bacterial culture turbidity to 0.5 McFarland standard (approximately 1.5×10^8 cells/ml) and further diluted (100 times with sterile BHI broth). Diluted bacterial suspension (100 μl) was added to each well except sterility control wells (column 12 of 96 well plate). The plates were incubated at 37° C. for 24 h. The MIC of the test compound was measured after addition of Alamar blue dye.

For test [2], the system named is S. aureus ATCC 43300. The note with it: S. aureus ATCC 43300; for MIC: Staphylococcus aureus, ATCC43300, read-out: Minimum inhibitory concentration (MIC). How it is done:
as §1

In test [3] the test system is S. aureus CCARM 3505. The note with it: for MIC: Staphylococcus aureus, CCARM3505, read-out: Minimum inhibitory concentration (MIC). The protocol:
as §1

For test [4], the system named is S. aureus MTCC 6908. The note with it: for MIC: Staphylococcus aureus, MTCC6908, read-out: Minimum inhibitory concentration (MIC). How it is done: as §1
The subject of test [5] is S. epidermidis ATCC 35984. The note with it: for MIC: Staphylococcus epidermidis, ATCC35984, read-out: Minimum inhibitory concentration (MIC). How it is done: as §1
The test system of test [6] is S. epidermidis S12-1. The settings on record: for MIC: Staphylococcus epidermidis, S121, read-out: Minimum inhibitory concentration (MIC). The protocol:
as §1

Test [7] deals with E. coli MTCC 1687. The settings on record: Escherichia coli, MTCC1687, read-out: Minimum inhibitory concentration (MIC). The protocol: as §1

Values after ≈ are worked out from the molar mass of the structure shown. Some results are limits rather than exact numbers.

As for `CCNC(=O)N1CCN(c2cc3c(cc2F)c(=O)c(C(=O)O)c2n3C(C)S2)CC1` (stereo not shown) [Compound 48, 7-(4-(Ethylcarbamoyl)piperazin-1-yl)-6-fluoro-1-methyl-4-oxo-1H,4H-[1,3]thiazeto[3,2-a]quinoline-3-carboxylic acid], the MIC in test [1] was > 16 µg/mL; in test [2] it was 1 µg/mL (≈ 2.38 µM); in test [3], > 16 µg/mL; in test [4], 2 µg/mL (≈ 4.76 µM); in test [5], 0.5 µg/mL (≈ 1.19 µM); in test [6], > 16 µg/mL.
`CC(=O)NC[C@H]1CN(c2ccc(N3CCN(C(=O)c4csc(N)n4)CC3)c(F)c2)C(=O)O1` [Compound 57, (S)—N-((3-(4-(4-(2-aminothiazole-4-carbonyl)piperazin-1-yl)-3-fluorophenyl)-2-oxooxazolidin-5-yl)methyl)acetamide]: the MIC is > 16 µg/mL in test [1]; 16 µg/mL (≈ 34.6 µM) in test [2]; > 16 µg/mL in test [3]; 8 µg/mL (≈ 17.3 µM) in test [4]; > 16 µg/mL in test [5]; > 16 µg/mL in test [6].
As to `CC(=O)NC[C@H]1CN(c2ccc(N3CCN(C(=O)c4csc(NC(=N)N)n4)CC3)c(F)c2)C(=O)O1` [Compound 58, (S)—N-((3-(3-fluoro-4-(4-(2-guanidinothiazole-4-carbonyl)piperazin-1-yl)phenyl)-2-oxooxazolidin-5-yl)methyl)acetamide], the MIC in test [1], in test [2], in test [3], in test [4], in test [5] and in test [6] was > 16 µg/mL throughout.
As for `CC(=O)NC[C@H]1CN(c2ccc(N3CCN(Cc4nc5ccc([N+](=O)[O-])cc5[nH]4)CC3)c(F)c2)C(=O)O1` [Compound 65, (S)—N-((3-(3-Fluoro-4-(4-((6-nitro-1H-benzo[d]imidazol-2-yl)methyl)piperazin-1-yl)phenyl)-2-oxooxazolidin-5-yl)methyl)acetamide], the MIC in test [1] was > 16 µg/mL; in test [2], > 16 µg/mL; in test [3], > 16 µg/mL; in test [4], 16 µg/mL (≈ 31.3 µM); in test [5], 16 µg/mL (≈ 31.3 µM); in test [6] it was > 16 µg/mL.
For the molecule `CC(=O)NC[C@H]1CN(c2ccc(N3CCN(Cc4nc5cc(Cl)c(Cl)cc5[nH]4)CC3)c(F)c2)C(=O)O1` [Compound 66, (S)—N-((3-(4-(4-((5,6-Dichloro-1H-benzo[d]imidazol-2-yl)methyl)piperazin-1-yl)-3-fluorophenyl)-2-oxooxazolidin-5-yl)methyl)acetamide], the MIC was > 16 µg/mL in test [1]; > 16 µg/mL in test [3]; 8 µg/mL (≈ 14.9 µM) in test [4]; 8 µg/mL (≈ 14.9 µM) in test [5]; > 16 µg/mL in test [6]. Also, the “Minimum inhibitory concentration (MIC)” value in test [2] is listed as 8/16.
Take `CC(=O)NC[C@H]1CN(c2ccc(N3CCN(CC(=O)Nc4ccc5nc(N)[nH]c5c4)CC3)c(F)c2)C(=O)O1` [Compound 68, (S)-2-(4-(4-(5-(acetamidomethyl)-2-oxooxazolidin-3-yl)-2-fluorophenyl)piperazin-1-yl)-N-(2-amino-1H-benzo[d]imidazol-6-yl)acetamide]: the MIC was > 16 µg/mL in test [1]; > 64 µg/mL in test [2]; > 16 µg/mL in test [3]; 16 µg/mL (≈ 30.5 µM) in test [4]; > 16 µg/mL in test [5]; > 16 µg/mL in test [6].
On to `CC(=O)NC[C@H]1CN(c2ccc(N3CCN(C(=O)c4c[nH]c5ccc([N+](=O)[O-])cc45)CC3)c(F)c2)C(=O)O1` [Compound 75, (S)—N-((3-(3-fluoro-4-(4-(5-nitro-1H-indole-3-carbonyl)piperazin-1-yl)phenyl)-2-oxooxazolidin-5-yl)methyl)acetamide], for which the MIC in test [1] is > 16 µg/mL; in test [2], 16 µg/mL (≈ 30.5 µM); in test [3], > 16 µg/mL; in test [4] it was 4 µg/mL (≈ 7.63 µM); in test [5], > 16 µg/mL; in test [6], > 16 µg/mL.
On to `CC(=O)NC[C@H]1CN(c2ccc(N3CCN(C(=O)c4cccc(Br)n4)CC3)c(F)c2)C(=O)O1` [Compound 76, (S)—N-((3-(4-(4-(6-Bromopicolinoyl)piperazin-1-yl)-3-fluorophenyl)-2-oxooxazolidin-5-yl)methyl)acetamide], for which the MIC is > 16 µg/mL in test [1]; 8 µg/mL (≈ 15.4 µM) in test [2]; 8 µg/mL (≈ 15.4 µM) in test [3]; 4 µg/mL (≈ 7.69 µM) in test [4]; 2 µg/mL (≈ 3.84 µM) in test [5]; 4 µg/mL (≈ 7.69 µM) in test [6].
Take `CC(=O)NC[C@H]1CN(c2ccc(N3CCN(C(=O)c4ccccn4)CC3)c(F)c2)C(=O)O1` [Compound 77, (S)—N-((3-(3-fluoro-4-(4-picolinoylpiperazin-1-yl)phenyl)-2-oxooxazolidin-5-yl)methyl)acetamide]: the MIC turned out to be 0.5 µg/mL (≈ 1.13 µM) in test [1]; 8 µg/mL (≈ 18.1 µM) in test [2]; 8 µg/mL (≈ 18.1 µM) in test [3]; 4 µg/mL (≈ 9.06 µM) in test [4]; 4 µg/mL (≈ 9.06 µM) in test [5]; 4 µg/mL (≈ 9.06 µM) in test [6].
On to `CC(=O)NC[C@H]1CN(c2ccc(N3CCN(C(=O)c4cccc[n+]4[O-])CC3)c(F)c2)C(=O)O1` [Compound 78, (S)-2-(4-(4-(5-(acetamidomethyl)-2-oxooxazolidin-3-yl)-2-fluorophenyl)piperazine-1-carbonyl)-pyridine 1-oxide], for which the MIC was > 16 µg/mL in test [1]; 16 µg/mL (≈ 35 µM) in test [2]; > 16 µg/mL in test [3]; 8 µg/mL (≈ 17.5 µM) in test [4]; 8 µg/mL (≈ 17.5 µM) in test [5]; 8 µg/mL (≈ 17.5 µM) in test [6].
For `CC(=O)NC[C@H]1CN(c2ccc(N3CCN(C(=O)CNC(=O)c4cccc[n+]4[O-])CC3)c(F)c2)C(=O)N1` [Compound 80, (S)-2-((2-(4-(4-(4-(Acetamidomethyl)-2-oxoimidazolidin-1-yl)-2-fluorophenyl)piperazin-1-yl)-2-oxoethyl)carbamoyl)pyridine 1-oxide], the MIC in test [1] was > 16 µg/mL; in test [2], 16 µg/mL (≈ 31.2 µM); in test [3], > 16 µg/mL; in test [4], 16 µg/mL (≈ 31.2 µM); in test [5], > 16 µg/mL; in test [6], > 16 µg/mL.
In the case of `CC(=O)NC[C@H]1CN(c2ccc(N3CCN(C(=O)NC(=N)N)CC3)c(F)c2)C(=O)O1` [Compound 84, (S)-4-(4-(5-(Acetamidomethyl)-2-oxooxazolidin-3-yl)-2-fluorophenyl)-N-carbamimidoylpiperazine-1-carboxamide], the MIC in test [1] is > 16 µg/mL; in test [2], > 16 µg/mL; in test [3], > 16 µg/mL; in test [4], > 16 µg/mL; in test [5], 16 µg/mL (≈ 38 µM); in test [6] it was 8 µg/mL (≈ 19 µM).
Consider `CCCCCCCCCCC[CH2][SnH2][CH2][C@@H](NC(C)=O)C(=O)N1CCN(c2ccc(N3CC(CNC(C)=O)OC3=O)cc2F)CC1` (stereo partly drawn) [Compound 108, (S)—N-[2-(4-{4-[5-(Acetylamino-methyl)-2-oxo-oxazolidin-3-yl]-2-fluoro-phenyl}-piperazin-1-yl)-1-dodecylstannanylmethyl-2-oxo-ethyl]-acetamide], for which the “Minimum inhibitory concentration (MIC)” value in test [1], in test [2], in test [3], in test [4], in test [5] and in test [6] was >16 µg/mL throughout.
For the molecule `CC(=O)NC[C@H]1CN(c2ccc(N3CCN(C(=O)c4coc(N)n4)CC3)c(F)c2)C(=O)O1` [Compound 110, (S)—N-(3-{4-[4-(2-amino-oxazole-4-carbonyl)-piperazin-1-yl]-3-fluoro-phenyl}-2-oxo-oxazolidin-5-ylmethyl)-acetamide], the MIC in test [1], in test [2], in test [3], in test [4], in test [5] and in test [6] was > 16 µg/mL throughout.
On to `CC1Sc2c(C(=O)O)c(=O)c3cc(F)c(N4CCN(C(=O)CNC(=O)c5cccc[n+]5[O-])CC4)cc3n21` (stereo not shown) [Compound 111, 2-((2-(4-(3-carboxy-6-fluoro-1-methyl-4-oxo-1H,4H-[1,3]thiazeto[3,2-a]quinolin-7-yl)piperazin-1-yl)-2-oxoethyl)carbamoyl)pyridine 1-oxide], for which the MIC was > 16 µg/mL in test [1]; 16 µg/mL (≈ 30.3 µM) in test [2]; > 16 µg/mL in test [3]; > 16 µg/mL in test [4]; > 16 µg/mL in test [5]; > 16 µg/mL in test [6].
As for `CC1Sc2c(C(=O)O)c(=O)c3cc(F)c(N4CCN(CC(=O)NC(=O)Nc5ccccc5)CC4)cc3n21` (stereo not shown) [Compound 112, 6-Fluoro-1-methyl-4-oxo-7-(4-(2-oxo-2-(3-phenylureido)ethyl)piperazin-1-yl)-1H,4H-[1,3]thiazeto-[3,2-a]quinoline-3-carboxylic acid], the MIC in test [7] was 1 µg/mL (≈ 1.9 µM); in test [1], > 16 µg/mL; in test [2], 0.13 µg/mL (≈ 0.247 µM); in test [3] it was > 16 µg/mL; in test [4], 0.25 µg/mL (≈ 0.476 µM); in test [5], 0.13 µg/mL (≈ 0.247 µM). For the same molecule, in test [6], the MIC turned out to be 8 µg/mL (≈ 15.2 µM).

Source of the values: patent US10570152B2, “Antibacterial therapeutics and prophylactics” (VYOME BIOSCIENCES PVT. LTD., priority 2015, dated 2020).
